Publication PMC11167041, “Purification, characterization and three-dimensional structure prediction of multicopper oxidase Laccases from Trichoderma lixii FLU1 and Talaromyces pinophilus FLU12” (Scientific Reports, 2024)
Read-outs that look alike come from different tables or passages of the source.

Key:
[1] = test system: T1, Laccase from Trichoderma lixii FLU1 (TlFLU1); assay: spectrophotometric oxidation assay, […] nm, Michaelis-Menten fit; type: biochemical; details: 50 mM acetate buffer pH 5, 30 °C; substrate varied 1-5 mM
T1 construct: native extracellular enzyme purified from culture; monomer, 44 kDa (SDS-PAGE)

[2] = test system: Laccase from Trichoderma lixii FLU1 (TlFLU1); details: 50 mM acetate buffer pH 5, 30 °C; substrate varied 1-5 mM
[3] = test system: T2, Laccase from Talaromyces pinophilus FLU12 (TpFLU12); assay: spectrophotometric oxidation assay, […] nm, Michaelis-Menten fit; type: biochemical; details: 50 mM acetate buffer pH 7, 50 °C; substrate varied 1-5 mM
T2 construct: native extracellular enzyme purified from culture

[4] = test system: T2, Laccase from Talaromyces pinophilus FLU12 (TpFLU12); assay: as above; type: biochemical; details: 50 mM acetate buffer pH 7, 50 °C; substrate varied 1-5 mM; remark: listed apart in the source
[5] = test system: T1, Laccase from Trichoderma lixii FLU1 (TlFLU1); assay: as above; type: biochemical; details: 50 mM acetate buffer pH 5, 30 °C; substrate varied 1-5 mM; remark: listed apart in the source
[6] = test system: T1, Laccase from Trichoderma lixii FLU1 (TlFLU1); assay: as above; type: biochemical; details: 50 mM acetate buffer pH 5, 30 °C; substrate varied 1-5 mM; remark: listed apart in the source

COc1cccc(OC)c1O [2,6-DMP, 2,6-dimethoxyphenol]
Km [1]: 13 µM

CCn1c(=NN=c2sc3cc(S(=O)(=O)O)ccc3n2CC)sc2cc(S(=O)(=O)O)ccc21 [ABTS, 2,2-azino-bis-(3-ethyl-benzothiazoline-6-sulphonic acid)]
Km [2]: 10.8 µM | Km [3]: 8.2 µM

O=C(O)/C=C/c1ccc(O)c(O)c1 [caffeic acid]
Km [4]: 38.6 µM | Km [5]: 43 µM

COc1ccccc1O [guaiacol]
Km [6]: 12.7 µM
